Data taken from patent US9820990B2, “Methods of treating disorders associated with protein aggregation” (University of Pittsburgh—Of the Commonwealth System of …, priority 2009, dated 2017).
“Also recorded” adds a separate entry of the source. Where a name gives a salt, the structure may show the parent alone. Read-outs that look alike come from different tables or passages of the source.

Tests used:
[1] = tested on: ATZ; settings: mouse model of AT deficiency; cited from earlier work
[2] = tested on: C. elegans; settings: 0-100 mM, 4 hours, SYTOX Green uptake
Procedure: Animals were washed 5 times with M9 media and stained with 2 μM SYTOX™ Green (Invitrogen) for 5 minutes at room temperature (84). Approximately 50 animals/well were dispensed into an optical bottom black walled 96 well plate (Nunc Thermo Fisher Scientific, Rochester, N.Y., USA). Wells were imaged using the ArrayScan VTI over the entire area of the well in brightfield, red (TRITC) and green (GFP) channels at 50× magnification. The total number of animals and the number of dead bodies were determined by counting red and green spots, respectively. Data from SpotDetector algorithm were confirmed by manual counting of the live and dead animals. Percent dead=(the number of green objects detected/total number of animals)×100.
To determine whether the system could discriminate dead from live intestinal cells, we scanned and analyzed young adult animals exposed to different concentrations of NaAz in the presence SYTOX® Green.

[3] = tested on: sGFP::ATZ; assay: LOPAC library high-content primary screen for sGFP::ATZ accumulation in transgenic animals; assay type: in vivo, C. elegans; settings: for Rank-score: 24 h
[4] = tested on: sGFP::ATZ; assay: Hit compound characterization: dose-response in the sGFP::ATZ HCS assay; assay type: in vivo, C. elegans; set-up: key to dose-dependent response: c: Compound demonstrated a dose-dependent response.; Compound failed to demonstrate a dose-dependent response; settings: for degradation of aggregated ATZ protein: Caenorhabditis elegans model system; for effect on sGFP::ATZ accumulation: dose-response, 0-100 μM; for dose-dependent response: retest at 0-100 μM, 24 or 48 hours; for GFP+ inclusions in ATZ worms: at 10 μM
Procedure: Imaging of animals using the ArrayScan VTI: Prior to imaging, worms were anesthetized by adding 30 μl of 0.02 M NaN3 in PBS to each well. Plates were resealed, inverted twice, and incubated for 5 minutes at room temperature. Images were acquired with the ArrayScan VTI HCS Reader fitted with a 2.5× objective and a 0.63× coupler using a 2-channel (TRITC and GFP) assay. Real-time analysis was performed using the SpotDetector BioApplication optimized to quantify fluorescent protein expression in C. elegans. Image acquisition and analysis of a 384-well plate was completed in <45 minutes. The total number of animals in the well was determined by counting the number of red heads (Pmyo-2mRFP) in the TRITC channel. Total spot area or total spot intensity was determined by quantifying the GFP-positive spots in the GFP channel. Total spot area or total spot intensity per animal was determined by dividing the values from the GFP channel by that from the TRITC channel.
Hit compound characterization: Compounds that were identified as potential hits were purchased (if available) and retested for verification. […] Compounds that produced a response in a dose-dependent manner were further tested for a time-dependent response. Compound dose-response curves were performed by dispensing 15 μl of a 4× stock solution into 384-well plates containing 15 μl of assay medium (see above). Thirty-five animals were sorted into each well bringing the volume to ˜60 μl. The final compound concentrations in each well varied from 0-100 μM. Assay plates were incubated in a 22° C. incubator for 24 or 48 hours. Each compound was tested in quadruplicate in at least 2 independent experiments.
Statistical evaluation: Statistical evaluation of data was performed using Prism® (Graphpad Software). The significance of actual and predicted data in FIGS. 12, 14 and 15 was determined using a linear regression analysis and comparing the slope and goodness-of-fit (r2) values. Statistical significance of the spot count, spot area and spot intensity values between N2 (wild-type) and various transgenic lines in FIG. 13 and dose-response in FIG. 17 was determined using an unpaired, one-tailed, Student's t-test.
Compound screen: To test the HCS protocol, a pilot drug screen was performed using the library of pharmacologically active compounds (LOPAC1280™ 1280 compounds). Tight gating parameters for total fluorescence were used to sort 35 young adult Pnhx2sGFP::ATZ animals into wells of 384-well plates containing […] of a LOPAC compound and 0.5% DMSO. Pnhx2sGFP::ATZ animals incubated with 0.5% DMSO served as untreated controls and were placed in the first-two and last-two columns of each plate. In a representative experiment, plate 1 of the LOPAC library was set-up for screening on day 1, and 3 other plates were set-up on the next day. After 24 incubation at 25° C., animals were immobilized by the addition of NaAz and placed in the ArrayScan VTI for automated imaging. To examine for systematic errors, the raw data (total spot area/animal) were depicted as a plate-well scatter plot (FIG. 17A). […] This difference reflects a wider sort-window used to collect animals on day 1 in comparison to that used on day 2. As the average values of the negative controls and that of the sample wells were similar, we combined the control and samples wells for normalization and to identify potential hits using the z-score (FIG. 17B). The ArrayScan VTI reads microtiter plates by rows, alternating from left-to-right, and then right-to-left. For some assays, we noted that the control fluorescence values would drift upwards slightly in rows towards the bottom of the plate. This drift appeared to correlate with an increase in chamber temperature during the scanning period and was minimized by cooling the chamber with a fan or shortening the read times by using 2.5× objective with a 0.6 coupler. Nonetheless, intra-plate variation was controlled for by presenting the data as a B-score (FIG. 17C). […]

[5] = tested on: mCherry::LGG-1; assay: Induction of autophagy in transgenic animals expressing Pnhx-2mCherry::lgg-1; assay type: in vivo, C. elegans; settings: compared with well-fed animals treated with DMSO (diffuse)
Description: FIG. 18A-E. Induction of autophagy by hit compounds. Images of transgenic animals expressing Pnhx-2mCherry:lgg-1 treated with various compounds are shown. Images were acquired using a Nikon instruments TiEclipse widefield light microscope fitted with a 20× Plan Apochromat objective. Images were then deconvolved using Volocity (Perkin Elmer, v 5.3.2). Deconvolved z planes were then merged to a single plane. Well-fed animals treated with DMSO (A) show a diffuse mCherry expression throughout the intestine. […] Starved (E) animals are included as a positive control for autophagy. Scale bar, 50 μm.
Macroautophagy is a cellular process in which a double membrane envelops cytosolic components or organelles (autophagosome) and delivers this material to a lysosome (autophagolysosome) for degradation and recycling (reviewed in 79). LGG-1/LC3/Atg8 is a diffuse cytosolic protein that participates in autophagosome formation and becomes inserted into the autophagosome membrane (80). Upon autophagosome formation, LGG-1 fused to mCherry changes its cytoplasmic distribution pattern from diffuse (lower fluorescence intensity) to punctate (higher fluorescence intensity) (80). To determine whether the imaging system could follow this process, a strain expressing a Pnhx-2mCherry::lgg-1 transgene was examined after starvation, a potent inducer of intestinal autophagosome formation (81). In well-fed animals, the diffuse cytoplasmic fluorescence in the intestinal cells was well above that of the N2 background (FIGS. 13K-13L, 13O-13Q). To detect mCherry::LGG-1 puncta, the diffuse fluorescence intensity of the well-fed animals was used to calibrate a threshold from which the SpotDetector BioApplication could detect any high-intensity spots. Although basal autophagy in the well-fed animals yielded a few spots (FIG. 13O), the large number of distinct puncta in the starved animals (FIGS. 13M, 13N, 13O-Q) indicated a marked increase in autophagy that was detected best by a statistically significant increase in spot count or total spot intensity per animal (FIGS. 13O and 13Q, respectively). […]

[6] = tested on: ATZ in HTO/Z cells; assay: HTO/Z cells, Western blot analysis for AT; assay type: cell-based, human; settings: for ATZ levels in the cell line: HTO/Z mammalian cell line model of AT deficiency
Procedure: The cells were incubated for 48 hrs with fluphenazine in several different concentrations and then subjected to Western blot analysis for AT. […] The effect is evident at doses of 1-10 μM. […] This is different from CBZ which appears to affect autophagic as well as proteasomal degradation.

[7] = among compounds that decreased ATZ accumulation, based on relative rank-scores
[8] = average of compound rankings by ascending B-score from two independent screens, 50 μM, <110 decreased, >1225 increased sGFP::ATZ inclusions

Compound | Overall rank-order [3, 7] | Rank-score [3, 8] | degradation of aggregated ATZ protein [4] | effect on sGFP::ATZ accumulation [4] | dose-dependent response [4] | mCherry::LGG-1 distribution pattern (autophagic activity) [5] | also measured
NC(=O)N1c2ccccc2C=Cc2ccccc21 [carbamazepine] |  |  |  |  |  |  | amount of ATZ accumulated in the liver [1]: decrease
[N-]=[N+]=[N-] [sodium azide] |  |  |  |  |  |  | number of dead animals [2]: dose dependent increase
CC12C(=O)OC(=O)C1(C)C1CCC2O1 (stereo not shown) [cantharidin, 2,6-Dimethyl-4,10-dioxatricyclo-[5.2.1.02,6]decane-3,5-dione] | 2 | 2.5 | able to promote degradation of aggregated ATZ protein | dose-dependant decrease in sGFP::ATZ accumulation; also recorded: decreased | cantharidin^c | markedly punctate distribution pattern indicative of increased autophagic activity | concentration at which an anti-protein aggregate effect was achieved ([4]; C. elegans assay): 100 µM; effect on sGFP::ATZ accumulation ([4]; listed as Cantharidin): dose-dependent decrease in sGFP::ATZ accumulation
O=c1[nH]c2ccccc2n1C1CCN(CCCC(c2ccc(F)cc2)c2ccc(F)cc2)CC1 [pimozide, 1-[1-[4,4-bis(4-fluorophenyl)butyl]-4-piperidyl]-1,3-dihydrobenzoimidazol-2-one] | 33 | 107.5 | able to promote degradation of aggregated ATZ protein | dose-dependent decrease in sGFP::ATZ accumulation; also recorded: dose-dependant decrease in sGFP::ATZ accumulation; also recorded: dose-dependent effect; also recorded: decreased | pimozide^c | markedly punctate distribution pattern indicative of increased autophagic activity | GFP+ inclusions in ATZ worms [4]: almost complete elimination of the inclusions; ATZ levels in the cell line [6]: effective in reducing ATZ levels; also recorded: decreased ATZ
C/C=C(/C)C(=O)O[C@H]1C(C)=C2[C@H]([C@@H]1OC(=O)CCCCCCC)[C@@](C)(OC(C)=O)C[C@H](OC(=O)CCC)[C@@]1(O)[C@H]2OC(=O)[C@@]1(C)O [thapsigargin] |  | 1256.0 |  |  | thapsigargin^c |  | Overall rank-order ([3]; among compounds that increased ATZ accumulation, based on relative rank-scores): 2
CC/C(=C(\c1ccccc1)c1ccc(OCCN(C)C)cc1)c1ccccc1 [tamoxifen citrate, (Z)-2-[4-(1,2-diphenylbut-1-enyl)phenoxy]-N,N-dimethylethylamine] | 24 | 83.5 | able to promote degradation of aggregated ATZ protein | dose-dependant decrease in sGFP::ATZ accumulation | tamoxifen citrate^c |  | 
ivermectin | 1 | 2.0 |  |  | ivermectin^d |  | 
OCCN1CCN(CCCN2c3ccccc3Sc3ccc(C(F)(F)F)cc32)CC1 [fluphenazine dihydrochloride, 4-[3-[2-(Trifluoromethyl)phenothiazin-10-yl]propyl]-1-piperazineethanol] |  |  | able to promote degradation of aggregated ATZ protein | dose-dependent decrease in sGFP::ATZ accumulation; also recorded: dose-dependant decrease in sGFP::ATZ accumulation; also recorded: dose-dependent effect; also recorded: decreased | fluphenazine dihydrochloride^c | markedly punctate distribution pattern indicative of increased autophagic activity | Overall rank-order [3]: 23; Rank-score ([3]; 50 µM): 81.0; GFP+ inclusions in ATZ worms [4]: almost complete elimination of the inclusions; doses at which the decrease in insoluble ATZ is evident ([6]; HTO/Z cells, 48 hrs): 1 to 10 µM; levels of the control GAPDH ([6]; HTO/Z cells, 48 hrs): no significant change; soluble ATZ ([6]; HTO/Z cells, 48 hrs): increase; insoluble ATZ levels ([6]; HTO/Z cells, 48 hrs, several concentrations): dose-dependent decrease; ATZ levels in the cell line [6]: effective in reducing ATZ levels; ATZ levels in the cell line ([6]; listed as fluphenzine hydrochloride): decreased ATZ
CC(=O)O[C@H]1C(=O)[C@@]2(C)[C@H]([C@H](OC(=O)c3ccccc3)[C@]3(O)C[C@H](OC(=O)[C@H](O)[C@@H](NC(=O)c4ccccc4)c4ccccc4)C(C)=C1C3(C)C)[C@]1(OC(C)=O)CO[C@@H]1C[C@@H]2O [taxol, 5β,20-Epoxy-1,2α,4,7β, 10β,13α-hexahydroxytax-11-en-9-one 4,10-diacetate 2-benzoate 13-ester with (2R,3S)—N-benzoyl-3-phenylisoserine] |  |  | able to promote degradation of aggregated ATZ protein |  | taxol^c |  | Overall rank-order [3]: 19; Rank-score ([3]; 50 µM): 73.5
